Test results reported in US20100076013A1, “Methods of Treatment” (Novartis AG, priority 2006, published 2010).

Legend:
ML-2 = assay: CellTiter-Glo cell viability assay; assay type: cell-based; conditions: Homo sapiens; ML-2, AML; 72 hours
Experimental: (§1) The EC50s were determined using CellTiter-Glo (Promega), a bioluminescent, cell viability assay measuring ATP levels in viable cells. Cells were plated in assay plates and incubated with a range of compound concentrations for 72 hours. Cells were lysed and ATP levels were determined using CellTiter-Glo reagent on a luminometer according to manufacturer's instructions. EC50 refers to the concentration of compound that inhibited 50% of cell growth.

CCRF-HSB-2 = assay: CellTiter-Glo cell viability assay; assay type: cell-based; conditions: Homo sapiens; CCRF-HSB-2, T-ALL; 72 hours
Experimental: as §1

Reh = assay: CellTiter-Glo cell viability assay; assay type: cell-based; conditions: Homo sapiens, B-ALL, 72 hours
Experimental: as §1

Kasumi-1 = assay: CellTiter-Glo cell viability assay; assay type: cell-based; conditions: Homo sapiens; Kasumi-1, AML; 72 hours
Experimental: as §1

L-428 = assay: CellTiter-Glo cell viability assay; assay type: cell-based; conditions: Homo sapiens; L-428, HL; 72 hours
Experimental: as §1

KARPAS-45 = assay: CellTiter-Glo cell viability assay; assay type: cell-based; conditions: KARPAS-45, T-ALL; 72 hours
Experimental: as §1

NOMO-1 = assay: CellTiter-Glo cell viability assay; assay type: cell-based; conditions: Homo sapiens; NOMO-1, AML; 72 hours
Experimental: as §1

CCRF-CEM = assay: CellTiter-Glo cell viability assay; assay type: cell-based; conditions: Homo sapiens, T-ALL, 72 hours
Experimental: as §1

HSB-2 = assay: CellTiter-Glo cell viability assay; assay type: cell-based; conditions: HSB2; HSB-2, T-ALL; 72 hours
Experimental: as §1

EM-2 = assay: CellTiter-Glo cell viability assay; assay type: cell-based; conditions: Homo sapiens; EM-2, CML; 72 hours
Experimental: as §1

CEM/C2 = assay: CellTiter-Glo cell viability assay; assay type: cell-based; conditions: Homo sapiens; CEM/C2, T-ALL; 72 hours
Experimental: as §1

NALM-1 = assay: CellTiter-Glo cell viability assay; assay type: cell-based; conditions: NALM-1, CML; 72 hours
Experimental: as §1

Karpas-299 = assay: CellTiter-Glo cell viability assay; assay type: cell-based; conditions: Homo sapiens; Karpas-299, ALCL; 72 hours
Experimental: as §1

JURL-MK2 = assay: CellTiter-Glo cell viability assay; assay type: cell-based; conditions: JURL-MK2, CML; 72 hours
Experimental: as §1

JURL-MK1 = assay: CellTiter-Glo cell viability assay; assay type: cell-based; conditions: JURL-MK1, CML; 72 hours
Experimental: as §1

SR = assay: CellTiter-Glo cell viability assay; assay type: cell-based; conditions: Homo sapiens, LCIL, 72 hours
Experimental: as §1

EOL-1 = assay: CellTiter-Glo cell viability assay; assay type: cell-based; conditions: Homo sapiens, EOL1; EOL-1, AML; 72 hours
Experimental: as §1

OCI-AML3 = assay: CellTiter-Glo cell viability assay; assay type: cell-based; conditions: Homo sapiens, OCI-AML-3, 72 hours
Experimental: as §1

D1.1 = assay: CellTiter-Glo cell viability assay; assay type: cell-based; conditions: D1.1, T-ALL; 72 hours
Experimental: as §1

NB-4 = assay: CellTiter-Glo cell viability assay; assay type: cell-based; conditions: Homo sapiens; NB-4, AML; 72 hours
Experimental: as §1

KU812 = assay: CellTiter-Glo cell viability assay; assay type: cell-based; conditions: Homo sapiens; KU812, CML; 72 hours
Experimental: as §1

CEM/C1 = assay: CellTiter-Glo cell viability assay; assay type: cell-based; conditions: CEM/C1, T-ALL; 72 hours
Experimental: as §1

RL = assay: CellTiter-Glo cell viability assay; assay type: cell-based; conditions: Homo sapiens, B-NHL, 72 hours
Experimental: as §1

PL-21 = assay: CellTiter-Glo cell viability assay; assay type: cell-based; conditions: PL-21, AML; 72 hours
Experimental: as §1

MOLT-3 = assay: CellTiter-Glo cell viability assay; assay type: cell-based; conditions: Homo sapiens; MOLT-3, T-ALL; 72 hours
Experimental: as §1

LAMA-84 = assay: CellTiter-Glo cell viability assay; assay type: cell-based; conditions: Homo sapiens; LAMA-84, CML; 72 hours
Experimental: as §1

EM-3 = assay: CellTiter-Glo cell viability assay; assay type: cell-based; conditions: EM-3, CML; 72 hours
Experimental: as §1

JK-1 = assay: CellTiter-Glo cell viability assay; assay type: cell-based; conditions: JK-1, CML; 72 hours
Experimental: as §1

KE-37 = assay: CellTiter-Glo cell viability assay; assay type: cell-based; conditions: Homo sapiens; KE-37, T-ALL; 72 hours
Experimental: as §1

MV-4-11 = assay: CellTiter-Glo cell viability assay; assay type: cell-based; conditions: Homo sapiens, MV4-11; MV-4-11, AML; 72 hours
Experimental: (§2) See Kelly et al. (2002). […] See Cools et al. (2004).
as §1

[1] = system: PKC412-sensitive and resistant mutant FLT3-expressing cells
Experimental: (§3) The trypan blue exclusion assay has been previously described [see Weisberg et al. (2002)], and is used to determine proliferation of cells cultured in the presence and absence of LBW242. Cell viability is reported as percentage of control (untreated) cells. Error bars represent the standard error of the mean for each data point. Apoptosis of drug-treated cells is measured using the Annexin-V-Fluos Staining Kit (Boehringer Mannheim, Indianapolis, Ind.), as previously described. See Weisberg et al. (2002).

[2] = system: mutant FLT3-expressing cells; conditions: annexin-pi staining and caspase assays; effective concentrations in the micromolar range
Experimental: as §3

G697R-Ba/F3 [3] = assay: Trypan blue exclusion proliferation assay; assay type: cell-based, murine; conditions: PKC412-resistant line G697R-Ba/F3; FIGS. 1-2
Source text: as §2
(§4) See Weisberg et al. (2002).

D835Y-Ba/F3 cells = assay: Trypan blue exclusion proliferation assay; assay type: cell-based, murine; conditions: PKC412-sensitive line D835Y-Ba/F3; three-day treatment, FIG. 3
Source text: as §2, §4

FLT3-ITD-Ba/F3 [4] = conditions: PKC412-sensitive line FLT3-ITD-Ba/F3; FIGS. 1-2
Experimental: (§5) The IL-3-dependent murine hematopoietic cell line Ba/F3 are transduced with either FLT3-ITD or FLT3-D835Y-containing MSCV retroviruses harboring a neomycin selectable marker, and selected for resistance to neomycin. See Kelly et al. (2002). FLT3-ITD transduced cells are selected for growth in G418 (1 mg/mL). PKC412-resistant Ba/F3 cell lines, which express FLT3-ITD harboring a mutation in the ATP-binding pocket (F691L, A627T, G697R, N676D), are developed as described previously. See Cools et al. (2004). The human AML-derived, FLT3-ITD-expressing cell line, MV4; 11 [see Quentmeier et al. (2003)], is provided by Dr. Scott Armstrong, Dana Farber Cancer Institute, Boston, Mass. The human AML-derived, FLT3-ITD-expressing cell line, MOLM-13, is modified to express luciferase and provided as MOLM13-luc+ by Dr. Andrew Kung, Dana Farber Cancer Institute, Boston, Mass. All cell lines are cultured with 5% CO2 at 37° C., at a concentration of 2×10^5 to 5×10^5 in RPMI (Mediatech, Inc., Herndon, Va.) with 10% fetal calf serum and supplemented with 1% glutamine. Parental Ba/F3 cells expressing wild-type FLT3 are similarly cultured with 15% WEHI-conditioned medium as a source of IL-3. All transfected cell lines are cultured in media supplemented with 1 mg/mL G418.
(§6) N-[1-cyclohexyl-2-oxo-2-(6-phenethyl-octahydro-pyrrolo[2,3-c]pyridin-1-yl-ethyl]-2-methylamino-propionamide is synthesized by Novartis Pharma AG, Basel, Switzerland, and dissolved in DMSO to make 10 mM stock solutions. Serial dilutions are then made, also in DMSO, to obtain final dilutions for cellular assays.
as §3

[5] = system: wild-type FLT3-expressing Ba/F3 cells; conditions: FIG. 3
Experimental: as §5, §6, §3

[6] = system: FLT3-ITD-Ba/F3 cells expressing firefly luciferase; assay: Mouse model of acute leukemia, tumor burden by bioluminescence imaging; assay type: in vivo, NCr nude mice; conditions: for Student t-test p of bioluminescence (tumor burden), vehicle versus compound alone: 50 mg/kg oral gavage, NCr nude mice
Experimental: FIG. 4 illustrates NCR nude mice injected with 800,000 Ba/F3-FLT3-ITD-luc+ cells via IV tail vein, and then treated for up to 10 days by oral gavage with vehicle (NMP+PEG300), LBW242 (50 mg/kg).

[7] = system: Mutant FLT3-expressing cells
Experimental: as §5

G697R-Ba/F3 [8] = assay: Induction of apoptosis (Annexin-V staining) and caspase activity; assay type: cell-based, murine; conditions: 1 μM, following 2 days and 3 days, respectively
Source text: as §2, §4

FLT3-ITD-Ba/F3 [9] = conditions: 1 μM, following 2 days and 3 days, respectively
Experimental: as §5, with “Parental Ba/F3 cells expressing wild-type FLT3 are similarly cultured with 15% WEHI-conditioned medium as a source of IL-3. All transfected cell lines are cultured in media supplemented with 1 mg/mL G418.” left out
The trypan blue exclusion assay has been previously described [see Weisberg et al. (2002)], and is used to determine proliferation of cells cultured in the presence and absence of LBW242. […] Apoptosis of drug-treated cells is measured using the Annexin-V-Fluos Staining Kit (Boehringer Mannheim, Indianapolis, Ind.), as previously described. […]

Structure (SMILES): CN[C@@H](C)C(=O)N[C@H](C(=O)N1CCC[C@H]1c1nc(C(=O)c2ccc(F)cc2)cs1)C1CCCCC1 [(S)—N—((S)-1-Cyclohexyl-2-{(S)-2-[4-(4-fluoro-benzoyl)-thiazol-2-yl]-pyrrolidin-1-yl}-2-oxo-ethyl)-2-methylamino-propionamide]
- EC50 (ML-2): 0.015 µM
- EC50 (CCRF-HSB-2): 6.3 µM
- EC50 (Reh): 0.0791 µM
- EC50 (Kasumi-1): 8.64 µM
- EC50 (L-428): 7.3 µM
- EC50 (KARPAS-45): 10.5 µM
- EC50 (NOMO-1): 4.08 µM
- EC50 (CCRF-CEM): 0.676 µM
- EC50 (HSB-2): 0.4 µM
- EC50 (EM-2): 0.696 µM
- EC50 (CEM/C2): 3.83 µM
- EC50 (NALM-1): 3.54 µM
- EC50 (Karpas-299): 10.8 µM
- EC50 (JURL-MK2): 12.7 µM
- EC50 (JURL-MK1): 11.8 µM
- EC50 (SR): 11.6 µM
- EC50 (EOL-1): 1.66 µM
- EC50 (OCI-AML3): 4.08 µM
- EC50 (D1.1): 7.35 µM
- EC50 (NB-4): 0.0146 µM
- EC50 (KU812): 1.94 µM
- EC50 (CEM/C1): 4.6 µM
- EC50 (RL): 9.68 µM
- EC50 (PL-21): 3.55 µM
- EC50 (MOLT-3): 10.2 µM
- EC50 (LAMA-84): 0.203 µM
- EC50 (EM-3): 13.8 µM
- EC50 (JK-1): 3.49 µM
- EC50 (KE-37): 5.1 µM
- EC50 (MV-4-11): 14 µM

Structure (SMILES): CNC(C)C(=O)NC(C(=O)N1CCC2CCN(CCc3ccccc3)CC21)C1CCCCC1 (centres unmarked) [N-[1-cyclohexyl-2-oxo-2-(6-phenethyl-octahydro-pyrrolo[2,3-c]pyridin-1-yl-ethyl]-2-methylamino-propionamide]
- inhibition of cells in vitro [1]: inhibits
- induction of apoptosis [2]: modestly observed
- doses at which activity is displayed against the cells in culture (G697R-Ba/F3 [3]): ≥ 1 µM
- doses at which activity is displayed against the cells in culture (D835Y-Ba/F3 cells): ≥ 1 µM
- doses at which activity is displayed against the cells in culture (FLT3-ITD-Ba/F3 [4]): ≥ 1 µM
- concentrations that led to death of the cells [5]: > 1 µM
- inhibitory effects on cell growth ([5]; concentrations ≦1 μM): no inhibitory effects
- Student t-test p of bioluminescence (tumor burden), vehicle versus compound alone ([6]; day 5 post-IV injection): ≤ 0.0773
- Student t-test p of bioluminescence (tumor burden), vehicle versus compound alone ([6]; day 7 post-IV injection): ≤ 0.05625
- tolerability of doses effective against mutant FLT3 ([6]; in vivo): well-tolerated
- rescue of treated cells from cytotoxic effects by WEHI (source of IL-3) [7]: did not rescue
- induction of apoptosis and caspase activity (G697R-Ba/F3 [8]): found
- induction of apoptosis and caspase activity (FLT3-ITD-Ba/F3 [9]): found

Structure (SMILES): CO[C@@H]1[C@H](N(C)C(=O)c2ccccc2)C[C@H]2O[C@]1(C)n1c3ccccc3c3c4c(c5c6ccccc6n2c5c31)C(=O)NC4 [PKC412, reference compound]
- rescue of treated cells from cytotoxic effects by WEHI (source of IL-3) [7]: fully rescued
